Earlier results as cited in patent US20150376703A1, “METHOD AND SYSTEM TO PREDICT RESPONSE TO PAIN TREATMENTS” (PATHWAY GENOMICS CORPORATION, priority 2013, published 2015).

What was measured:
Alpha-Adducin = conditions: patients who share the 460Gly/Trp polymorphism
KCNE2 (T8A in MiRP 1) = target: T1, KCNE2 (T8A in MiRP 1) (Homo sapiens, UniProt Q12809+Q9Y6J6, T8A)
T1 construct: host or cells: patients (endogenous protein)

5-Lipoxygenase (ALOX5) = target: T2, 5-Lipoxygenase (ALOX5) (Homo sapiens, UniProt P09917); conditions: patients who share a specific tandem repeat in the promoter
T2 construct: host or cells: patients (endogenous enzyme)
T2 sequence (P09917 1-674): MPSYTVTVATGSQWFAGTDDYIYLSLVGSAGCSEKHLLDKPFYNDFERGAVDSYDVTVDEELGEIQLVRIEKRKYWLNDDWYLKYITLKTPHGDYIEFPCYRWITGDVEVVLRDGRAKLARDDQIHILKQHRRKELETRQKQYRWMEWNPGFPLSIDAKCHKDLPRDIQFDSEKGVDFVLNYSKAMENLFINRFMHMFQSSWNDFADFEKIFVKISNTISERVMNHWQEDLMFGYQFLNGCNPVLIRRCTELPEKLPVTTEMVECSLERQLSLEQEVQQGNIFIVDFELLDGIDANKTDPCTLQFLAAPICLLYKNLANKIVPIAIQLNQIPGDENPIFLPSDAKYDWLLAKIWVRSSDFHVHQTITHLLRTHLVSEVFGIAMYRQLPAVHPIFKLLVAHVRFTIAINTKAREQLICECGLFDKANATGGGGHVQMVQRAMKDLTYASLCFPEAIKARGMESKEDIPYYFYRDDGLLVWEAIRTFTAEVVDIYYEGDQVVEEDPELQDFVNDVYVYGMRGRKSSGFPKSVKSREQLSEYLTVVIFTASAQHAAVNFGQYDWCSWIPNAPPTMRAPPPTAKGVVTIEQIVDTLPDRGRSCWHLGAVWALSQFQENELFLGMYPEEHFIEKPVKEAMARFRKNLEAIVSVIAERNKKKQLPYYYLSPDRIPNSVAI

ACE (I/D) = target: T3, ACE (I/D) (Homo sapiens, UniProt P12821); conditions: patients bearing the ACE-II-Allele
T3 construct: host or cells: patients (endogenous enzyme)

[1] = system: Glycoprotein IIIa (PLA1/A2) subunit of glycoprotein IIb/IIIa; conditions: patients carrying the PLA2 polymorphism

T3 sequence (P12821 30-1306): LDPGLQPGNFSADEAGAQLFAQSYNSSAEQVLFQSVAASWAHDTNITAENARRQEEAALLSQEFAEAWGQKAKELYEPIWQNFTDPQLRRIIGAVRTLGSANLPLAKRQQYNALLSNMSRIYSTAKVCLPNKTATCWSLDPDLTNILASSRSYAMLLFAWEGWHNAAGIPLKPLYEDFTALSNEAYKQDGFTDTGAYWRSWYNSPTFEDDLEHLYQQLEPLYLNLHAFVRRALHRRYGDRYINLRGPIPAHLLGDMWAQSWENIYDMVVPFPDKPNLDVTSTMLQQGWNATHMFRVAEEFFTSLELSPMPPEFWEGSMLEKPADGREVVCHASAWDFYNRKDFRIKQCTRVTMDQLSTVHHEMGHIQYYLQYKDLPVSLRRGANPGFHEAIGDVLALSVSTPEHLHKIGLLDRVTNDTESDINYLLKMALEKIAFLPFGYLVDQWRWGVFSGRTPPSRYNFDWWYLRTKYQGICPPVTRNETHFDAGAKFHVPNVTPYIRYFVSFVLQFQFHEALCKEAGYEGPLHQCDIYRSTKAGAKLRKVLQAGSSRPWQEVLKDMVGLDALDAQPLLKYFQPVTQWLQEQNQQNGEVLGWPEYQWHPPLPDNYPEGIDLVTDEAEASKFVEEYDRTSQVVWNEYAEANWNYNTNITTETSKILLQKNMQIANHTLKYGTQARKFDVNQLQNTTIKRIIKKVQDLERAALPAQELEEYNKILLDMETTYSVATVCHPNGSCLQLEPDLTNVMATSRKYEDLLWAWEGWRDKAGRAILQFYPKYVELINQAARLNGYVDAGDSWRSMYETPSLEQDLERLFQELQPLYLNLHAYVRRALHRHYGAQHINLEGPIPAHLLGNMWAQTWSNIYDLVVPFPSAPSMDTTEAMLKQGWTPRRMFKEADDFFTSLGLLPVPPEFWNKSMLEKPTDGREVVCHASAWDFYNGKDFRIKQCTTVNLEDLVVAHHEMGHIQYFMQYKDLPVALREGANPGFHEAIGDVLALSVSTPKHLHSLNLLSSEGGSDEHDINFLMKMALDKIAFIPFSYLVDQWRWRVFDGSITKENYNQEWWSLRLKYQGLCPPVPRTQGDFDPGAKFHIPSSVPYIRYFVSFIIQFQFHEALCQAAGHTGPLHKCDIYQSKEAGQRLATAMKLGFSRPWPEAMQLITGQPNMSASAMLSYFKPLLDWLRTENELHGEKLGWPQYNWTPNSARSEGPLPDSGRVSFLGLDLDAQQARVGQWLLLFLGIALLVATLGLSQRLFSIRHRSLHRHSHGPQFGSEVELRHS
T1 sequence (Q9Y6J6 whole entry T8A): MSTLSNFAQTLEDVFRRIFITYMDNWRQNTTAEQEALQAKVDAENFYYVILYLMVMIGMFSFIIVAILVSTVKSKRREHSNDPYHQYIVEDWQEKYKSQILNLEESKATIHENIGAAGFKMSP
T1 sequence (Q12809 whole entry): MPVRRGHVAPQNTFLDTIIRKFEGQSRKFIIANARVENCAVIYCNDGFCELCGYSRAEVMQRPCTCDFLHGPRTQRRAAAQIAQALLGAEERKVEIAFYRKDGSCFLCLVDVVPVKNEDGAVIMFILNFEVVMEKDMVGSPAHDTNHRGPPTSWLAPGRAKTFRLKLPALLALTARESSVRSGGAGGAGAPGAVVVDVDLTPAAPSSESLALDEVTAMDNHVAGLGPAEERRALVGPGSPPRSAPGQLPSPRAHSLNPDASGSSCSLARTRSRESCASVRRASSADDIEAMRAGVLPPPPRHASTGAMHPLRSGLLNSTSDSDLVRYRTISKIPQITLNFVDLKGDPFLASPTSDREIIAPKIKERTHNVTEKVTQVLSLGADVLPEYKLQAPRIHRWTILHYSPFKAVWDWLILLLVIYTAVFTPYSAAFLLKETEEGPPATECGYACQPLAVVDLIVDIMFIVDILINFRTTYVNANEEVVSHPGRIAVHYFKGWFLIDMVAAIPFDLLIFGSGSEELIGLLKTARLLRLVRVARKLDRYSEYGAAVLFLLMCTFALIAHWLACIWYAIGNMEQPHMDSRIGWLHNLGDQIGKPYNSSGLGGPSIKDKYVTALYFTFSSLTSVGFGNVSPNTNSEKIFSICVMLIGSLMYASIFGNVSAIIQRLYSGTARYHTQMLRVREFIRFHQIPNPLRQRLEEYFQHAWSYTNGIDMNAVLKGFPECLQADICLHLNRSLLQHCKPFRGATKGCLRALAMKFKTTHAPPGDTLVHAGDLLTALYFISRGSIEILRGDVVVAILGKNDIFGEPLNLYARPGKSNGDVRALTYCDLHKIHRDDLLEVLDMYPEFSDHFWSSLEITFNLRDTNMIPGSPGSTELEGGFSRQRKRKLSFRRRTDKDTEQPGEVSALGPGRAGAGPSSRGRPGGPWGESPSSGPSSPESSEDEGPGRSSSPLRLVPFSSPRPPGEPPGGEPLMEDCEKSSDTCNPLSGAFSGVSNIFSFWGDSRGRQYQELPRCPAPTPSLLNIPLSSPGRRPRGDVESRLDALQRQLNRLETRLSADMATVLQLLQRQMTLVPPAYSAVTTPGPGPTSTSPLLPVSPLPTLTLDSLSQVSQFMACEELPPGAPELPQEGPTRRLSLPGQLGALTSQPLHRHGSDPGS

NS(=O)(=O)c1cc2c(cc1Cl)NCNS2(=O)=O [Hydrochlorothiazide]
Clinical Result: sensitivity (Alpha-Adducin): hypertension). Higher

O=c1[nH]c2ccccc2n1CCCN1CCN(C(c2ccccc2)c2ccccc2)CC1 [Oxatomid]
Clinical Result: adverse effect (KCNE2 (T8A in MiRP 1)): Drug induced Long-QT-

CC(c1cc2ccccc2s1)N(O)C(N)=O (centres unmarked) [Zileuton]
Clinical Result (5-Lipoxygenase (ALOX5)): No effect in patients who

CCOC(=O)[C@H](CCc1ccccc1)N[C@@H](C)C(=O)N1CCC[C@H]1C(=O)O [enalapril]
Clinical Result: response (ACE (I/D)): Better response of patients

C[C@H](N[C@@H](CCc1ccccc1)C(=O)O)C(=O)N1CCC[C@H]1C(=O)O [Enalaprilat]
Clinical Result: response (ACE (I/D)): Better response of patients

CC(=O)Oc1ccccc1C(=O)O [Aspirin]
Clinical Result: antiplatelet effect [1]: Reduced response in patients

Cc1cc(NS(=O)(=O)c2ccc(N)cc2)no1 [Sulfamethoxazol]
Clinical Result: adverse effect (KCNE2 (T8A in MiRP 1)): Drug induced Long-QT-

B1: Abciximab (antibody, chains of the INN, looked up, V domains shown)
VH: EVQLQQSGTVLARPGASVKMSCEASGYTFTNYWMHWVKQRPGQGLEWIGAIYPGNSDTSYIQKFKGKAKLTAVTSTTSVYMELSSLTNEDSAVYYCTLYDGYYVFAYWGQGTLVTVSA
VL: EIVLTQSPVTLSVTPGDSVSLSCRASRDISNNLHWFQQTSHESPRLLIKYASQSMSGIPSRFSGSGSGTDFTLSINSVETEDFGMYFCQQTNSWPYTFGGGTKLEIK
Clinical Result: antiplatelet effect [1]: Reduced response in patients
